# Test results from BindingDB's records for doi:10.7270/Q22F7KMG (Eli Lilly, 1995).
# Key:
# [1] = target: T1, Dimer of Gag-Pol polyprotein [489-587] (Human immunodeficiency virus 1, UniProt P12497); assay: Protease Inhibition Assay; details: pH 5.5; 22 °C
# T1 construct: 489-587
# From the text: (§1) In the presence of HIV-l protease, the substrate is rapidly cleaved into two parts. The biotinylated amino terminal fragment binds to the avidin Pandex beads while the FITC-containing carboxy1 terminal fragment is removed through the membrane.
# [2] = target: T2, Gag-Pol polyprotein [489-587] (Human immunodeficiency virus 1, UniProt P04585); assay: Protease Inhibition Assay
# T2 construct: 489-587
# From the text: as §1
SMILES,IC50 [1],IC50 [2]
"CC(C)(C)NC(=O)[C@@H]1C[C@@H]2SCC[C@@H]2CN1C[C@@H](O)[C@H](Cc1ccccc1)NC(=O)[C@@H](CS(=O)(=O)c1cccc2cccnc12)NS(C)(=O)=O [(3aR,6S,7aS)-N-tert-butyl-5-[(2R,3S)-2-hydroxy-3-[(2S)-2-methanesulfonamido-3-(quinoline-8-sulfonyl)propanamido]-4-phenylbutyl]-octahydrothieno[3,2-c]pyridine-6-carboxamide]",0.71 nM,0.71 nM
"CC(=O)N[C@H](CSCc1ccccc1)C(=O)N[C@@H](Cc1ccccc1)[C@H](O)CN1C[C@H]2CCCC[C@H]2C[C@H]1C(=O)NC(C)(C)C [(3S,4aS,8aS)-2-[(2R,3S)-3-[(2S)-3-(benzylsulfanyl)-2-acetamidopropanamido]-2-hydroxy-4-phenylbutyl]-N-tert-butyl-decahydroisoquinoline-3-carboxamide]",6 nM,6 nM
"CC(=O)N[C@H](CS(=O)(=O)c1ccc2ccccc2c1)C(=O)N[C@@H](Cc1ccccc1)[C@H](O)CN1C[C@H]2CCS[C@H]2C[C@H]1C(=O)NC(C)(C)C [(3aR,6S,7aS)-N-tert-butyl-5-[(2R,3S)-3-[(2S)-2-acetamido-3-(naphthalene-2-sulfonyl)propanamido]-2-hydroxy-4-phenylbutyl]-octahydrothieno[3,2-c]pyridine-6-carboxamide]",0.5 nM,0.5 nM
"CC(C)(C)NC(=O)[C@@H]1C[C@@H]2SCC[C@@H]2CN1C[C@@H](O)[C@H](CSc1ccccc1)NC(=O)[C@@H](CS(=O)(=O)c1ccc(F)cc1)NC(=O)C(F)(F)F [(3aR,6S,7aS)-N-tert-butyl-5-[(2R,3R)-3-[(2S)-3-[(4-fluorobenzene)sulfonyl]-2-(2,2,2-trifluoroacetamido)propanamido]-2-hydroxy-4-(phenylsulfanyl)butyl]-octahydrothieno[3,2-c]pyridine-6-carboxamide]",10 nM,10 nM
"CC(=O)N[C@H](CS(=O)(=O)c1cccc2cccnc12)C(=O)N[C@@H](Cc1ccccc1)[C@H](O)CN1C[C@H]2CCCC[C@H]2C[C@H]1C(=O)NC(C)(C)C [(3S,4aS,8aS)-N-tert-butyl-2-[(2R,3S)-3-[(2S)-2-acetamido-3-(quinoline-8-sulfonyl)propanamido]-2-hydroxy-4-phenylbutyl]-decahydroisoquinoline-3-carboxamide]",1.7 nM,1.7 nM
"CC(C)CN(C[C@@H](O)[C@H](Cc1ccccc1)NC(=O)[C@@H](C[S+]([O-])c1ccc2ccccc2c1)NS(C)(=O)=O)C(=O)NC(C)(C)C (stereo partly drawn) [(2S)-N-[(2S,3R)-4-[(tert-butylcarbamoyl)(2-methylpropyl)amino]-3-hydroxy-1-phenylbutan-2-yl]-2-methanesulfonamido-3-(naphthalene-2-sulfinyl)propanamide]",2.1 nM,2.1 nM
"CC(C)(C)NC(=O)[C@@H]1C[C@@H]2CCCC[C@@H]2CN1C[C@@H](O)[C@H](Cc1ccccc1)NC(=O)[C@@H](C[S+]([O-])c1ccc(F)cc1)NS(C)(=O)=O (stereo partly drawn) [(3S,4aS,8aS)-N-tert-butyl-2-[(2R,3S)-3-[(2S)-3-[(4-fluorobenzene)sulfinyl]-2-methanesulfonamidopropanamido]-2-hydroxy-4-phenylbutyl]-decahydroisoquinoline-3-carboxamide]",0.6 nM,0.6 nM
"CC(C)CN(C[C@@H](O)[C@H](Cc1ccccc1)NC(=O)[C@@H](CS(=O)(=O)c1ccc(F)cc1)NS(C)(=O)=O)C(=O)NC(C)(C)C [(2S)-N-[(2S,3R)-4-[(tert-butylcarbamoyl)(2-methylpropyl)amino]-3-hydroxy-1-phenylbutan-2-yl]-3-[(4-fluorobenzene)sulfonyl]-2-methanesulfonamidopropanamide]",10 nM,10 nM
"CC(C)(C)NC(=O)[C@@H]1C[C@@H]2CCCC[C@@H]2CN1C[C@@H](O)[C@H](Cc1ccccc1)NC(=O)[C@@H](CS(=O)(=O)c1ccc2ccccc2c1)NS(C)(=O)=O [(3S,4aS,8aS)-N-tert-butyl-2-[(2R,3S)-2-hydroxy-3-[(2S)-2-methanesulfonamido-3-(naphthalene-2-sulfonyl)propanamido]-4-phenylbutyl]-decahydroisoquinoline-3-carboxamide]",0.5 nM,0.5 nM
"CC(=O)N[C@H](CS(=O)(=O)c1ccc(F)cc1)C(=O)N[C@@H](CSc1ccccc1)[C@H](O)CN1C[C@H]2CCS[C@H]2C[C@H]1C(=O)NC(C)(C)C [(3aR,6S,7aS)-N-tert-butyl-5-[(2R,3R)-3-[(2S)-2-acetamido-3-[(4-fluorobenzene)sulfonyl]propanamido]-2-hydroxy-4-(phenylsulfanyl)butyl]-octahydrothieno[3,2-c]pyridine-6-carboxamide]",1.8 nM,1.8 nM
"CC(C)(C)NC(=O)[C@@H]1C[C@@H]2CCCC[C@@H]2CN1C[C@@H](O)[C@H](Cc1ccccc1)NC(=O)[C@@H](CSc1ccc(F)cc1)NS(C)(=O)=O [(3S,4aS,8aS)-N-tert-butyl-2-[(2R,3S)-3-[(2S)-3-[(4-fluorophenyl)sulfanyl]-2-methanesulfonamidopropanamido]-2-hydroxy-4-phenylbutyl]-decahydroisoquinoline-3-carboxamide]",24 nM,24 nM
"CC(=O)N[C@H](CS(=O)(=O)c1ccc2ccccc2c1)C(=O)N[C@@H](Cc1ccccc1)[C@H](O)CN1C[C@H]2CCCC[C@H]2C[C@H]1C(=O)NC(C)(C)C [(3S,4aS,8aS)-N-tert-butyl-2-[(2R,3S)-3-[(2S)-2-acetamido-3-(naphthalene-2-sulfonyl)propanamido]-2-hydroxy-4-phenylbutyl]-decahydroisoquinoline-3-carboxamide]",1.6 nM,1.6 nM
"CC(C)CN(C[C@@H](O)[C@H](Cc1ccccc1)NC(=O)[C@@H](CSc1ccc(F)cc1)NS(C)(=O)=O)C(=O)NC(C)(C)C [(2S)-N-[(2S,3R)-4-[(tert-butylcarbamoyl)(2-methylpropyl)amino]-3-hydroxy-1-phenylbutan-2-yl]-3-[(4-fluorophenyl)sulfanyl]-2-methanesulfonamidopropanamide]",85 nM,85 nM
CC(C)(C)NC(=O)[C@@H]1C[C@@H]2CCCC[C@@H]2CN1C[C@@H](O)[C@H](Cc1ccccc1)NC(=O)[C@@H](CS(=O)(=O)c1ccc(F)cc1)NS(C)(=O)=O [Saquinavir/Nelfinavir deriv.],2 nM,2 nM
"CC(=O)N[C@H](CS(=O)(=O)c1cccc2cccnc12)C(=O)N[C@@H](Cc1ccccc1)[C@H](O)CN1C[C@H]2CCS[C@H]2C[C@H]1C(=O)NC(C)(C)C [(3aR,6S,7aS)-N-tert-butyl-5-[(2R,3S)-3-[(2S)-2-acetamido-3-(quinoline-8-sulfonyl)propanamido]-2-hydroxy-4-phenylbutyl]-octahydrothieno[3,2-c]pyridine-6-carboxamide]",0.42 nM,0.42 nM
"CC(C)(C)NC(=O)[C@@H]1C[C@@H]2CCCC[C@@H]2CN1C[C@@H](O)[C@H](Cc1ccccc1)NC(=O)[C@@H](CSc1ccc2ccccc2c1)NS(C)(=O)=O [(3S,4aS,8aS)-N-tert-butyl-2-[(2R,3S)-2-hydroxy-3-[(2S)-2-methanesulfonamido-3-(naphthalen-2-ylsulfanyl)propanamido]-4-phenylbutyl]-decahydroisoquinoline-3-carboxamide]",5.1 nM,5.1 nM
"CC(C)(C)NC(=O)[C@@H]1C[C@@H]2SCC[C@@H]2CN1C[C@@H](O)[C@H](CSc1ccccc1)NC(=O)[C@@H](CS(=O)(=O)c1ccc2ccccc2c1)NC(=O)C(F)(F)F [(3aR,6S,7aS)-N-tert-butyl-5-[(2R,3R)-2-hydroxy-3-[(2S)-3-(naphthalene-2-sulfonyl)-2-(2,2,2-trifluoroacetamido)propanamido]-4-(phenylsulfanyl)butyl]-octahydrothieno[3,2-c]pyridine-6-carboxamide]",1.8 nM,1.8 nM
"CC(C)(C)NC(=O)[C@@H]1C[C@@H]2SCC[C@@H]2CN1C[C@@H](O)[C@H](Cc1ccccc1)NC(=O)[C@@H](CS(=O)(=O)c1cccc2cccnc12)NC(=O)C(F)(F)F [(3aR,6S,7aS)-N-tert-butyl-5-[(2R,3S)-2-hydroxy-4-phenyl-3-[(2S)-3-(quinoline-8-sulfonyl)-2-(2,2,2-trifluoroacetamido)propanamido]butyl]-octahydrothieno[3,2-c]pyridine-6-carboxamide]",0.21 nM,0.21 nM
"CC(C)(C)NC(=O)[C@@H]1C[C@@H]2SCC[C@@H]2CN1C[C@@H](O)[C@H](Cc1ccccc1)NC(=O)[C@@H](CS(=O)(=O)c1ccc(F)cc1)NS(C)(=O)=O [(3aR,6S,7aS)-N-tert-butyl-5-[(2R,3S)-3-[(2S)-3-[(4-fluorobenzene)sulfonyl]-2-methanesulfonamidopropanamido]-2-hydroxy-4-phenylbutyl]-octahydrothieno[3,2-c]pyridine-6-carboxamide]",0.22 nM,0.22 nM
CC(C)(C)NC(=O)[C@@H]1C[C@@H]2CCCC[C@@H]2CN1C[C@@H](O)[C@H](Cc1ccccc1)NC(=O)[C@@H](C[S+]([O-])c1ccc2ccccc2c1)NS(C)(=O)=O (some centres not stated),0.4 nM,0.4 nM
"CC(C)CN(C[C@@H](O)[C@H](Cc1ccccc1)NC(=O)[C@@H](CSc1ccc2ccccc2c1)NS(C)(=O)=O)C(=O)NC(C)(C)C [(2S)-N-[(2S,3R)-4-[(tert-butylcarbamoyl)(2-methylpropyl)amino]-3-hydroxy-1-phenylbutan-2-yl]-2-methanesulfonamido-3-(naphthalen-2-ylsulfanyl)propanamide]",50 nM,50 nM
